Data: ChEMBL document CHEMBL1909046, “DrugMatrix in vitro pharmacology data”

Legend:
[1] = target: Sodium-dependent noradrenaline transporter (Homo sapiens, UniProt P23975); experiment: DRUGMATRIX: Norepinephrine Transporter radioligand binding (ligand: [125I] RTI-55); format: cell membranes, MDCK, Membrane; conditions: mdck; Not Active = under 50% inhibition at 10 µM
[2] = target: Sigma non-opioid intracellular receptor 1 (Homo sapiens, UniProt Q99720); experiment: DRUGMATRIX: Sigma1 radioligand binding (ligand: [3H] Haloperidol); format: cell membranes, Jurkat, Membrane; conditions: jurkat; Not Active = under 50% inhibition at 10 µM
Chain of Sigma non-opioid intracellular receptor 1 (Q99720 whole entry): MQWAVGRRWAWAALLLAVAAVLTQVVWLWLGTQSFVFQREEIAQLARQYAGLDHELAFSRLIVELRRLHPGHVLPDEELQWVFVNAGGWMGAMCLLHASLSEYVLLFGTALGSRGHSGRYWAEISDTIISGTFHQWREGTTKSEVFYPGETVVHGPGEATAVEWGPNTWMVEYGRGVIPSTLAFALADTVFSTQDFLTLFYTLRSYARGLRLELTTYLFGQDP

D(1A) dopamine receptor = D(1A) dopamine receptor (Homo sapiens, UniProt P21728); experiment: DRUGMATRIX: Dopamine D1 radioligand binding (ligand: [3H] SCH-23390); format: cell membranes, CHO, Membrane; conditions: cho; Not Active = under 50% inhibition at 10 µM
Chain of D(1A) dopamine receptor (P21728 whole entry): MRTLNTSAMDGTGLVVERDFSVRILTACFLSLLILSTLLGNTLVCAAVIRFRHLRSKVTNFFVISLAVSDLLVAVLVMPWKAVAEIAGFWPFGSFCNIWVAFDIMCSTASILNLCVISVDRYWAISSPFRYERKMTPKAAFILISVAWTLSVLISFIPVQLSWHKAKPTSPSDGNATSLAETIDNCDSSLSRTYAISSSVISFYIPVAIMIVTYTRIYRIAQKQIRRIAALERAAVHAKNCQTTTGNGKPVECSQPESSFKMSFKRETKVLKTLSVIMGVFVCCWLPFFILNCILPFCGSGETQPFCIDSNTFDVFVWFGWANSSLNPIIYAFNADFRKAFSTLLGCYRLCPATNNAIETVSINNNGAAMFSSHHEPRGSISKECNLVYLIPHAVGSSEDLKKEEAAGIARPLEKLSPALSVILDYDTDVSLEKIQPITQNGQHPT

D(4) dopamine receptor = target: T1, D(4) dopamine receptor (Homo sapiens, UniProt P21917); experiment: DRUGMATRIX: Dopamine D4.2 radioligand binding (ligand: [3H] Spiperone); format: cell membranes, CHO-K1, Membrane; conditions: cho-k1; Not Active = under 50% inhibition at 10 µM
T1 sequence (P21917 whole entry): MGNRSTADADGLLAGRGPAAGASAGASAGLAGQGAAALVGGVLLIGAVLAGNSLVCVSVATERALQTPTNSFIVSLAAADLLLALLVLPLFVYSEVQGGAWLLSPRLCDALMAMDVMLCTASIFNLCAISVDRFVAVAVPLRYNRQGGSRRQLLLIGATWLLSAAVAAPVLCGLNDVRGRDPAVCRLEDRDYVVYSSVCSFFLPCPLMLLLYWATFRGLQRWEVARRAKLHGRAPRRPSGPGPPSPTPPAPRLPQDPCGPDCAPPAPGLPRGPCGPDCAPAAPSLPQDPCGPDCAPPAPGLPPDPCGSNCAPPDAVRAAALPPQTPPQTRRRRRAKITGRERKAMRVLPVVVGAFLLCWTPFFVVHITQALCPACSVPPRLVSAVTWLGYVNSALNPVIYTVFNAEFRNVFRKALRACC

[3] = target: Epidermal growth factor receptor (Homo sapiens, UniProt P00533); experiment: DRUGMATRIX: Protein Tyrosine Kinase, EGF Receptor enzyme inhibition (substrate: Poly(Glu:Tyr)); format: cell-based, Insect cells; conditions: insect cells; Not Active = under 50% inhibition at 10 µM
Chain of Epidermal growth factor receptor (P00533 whole entry): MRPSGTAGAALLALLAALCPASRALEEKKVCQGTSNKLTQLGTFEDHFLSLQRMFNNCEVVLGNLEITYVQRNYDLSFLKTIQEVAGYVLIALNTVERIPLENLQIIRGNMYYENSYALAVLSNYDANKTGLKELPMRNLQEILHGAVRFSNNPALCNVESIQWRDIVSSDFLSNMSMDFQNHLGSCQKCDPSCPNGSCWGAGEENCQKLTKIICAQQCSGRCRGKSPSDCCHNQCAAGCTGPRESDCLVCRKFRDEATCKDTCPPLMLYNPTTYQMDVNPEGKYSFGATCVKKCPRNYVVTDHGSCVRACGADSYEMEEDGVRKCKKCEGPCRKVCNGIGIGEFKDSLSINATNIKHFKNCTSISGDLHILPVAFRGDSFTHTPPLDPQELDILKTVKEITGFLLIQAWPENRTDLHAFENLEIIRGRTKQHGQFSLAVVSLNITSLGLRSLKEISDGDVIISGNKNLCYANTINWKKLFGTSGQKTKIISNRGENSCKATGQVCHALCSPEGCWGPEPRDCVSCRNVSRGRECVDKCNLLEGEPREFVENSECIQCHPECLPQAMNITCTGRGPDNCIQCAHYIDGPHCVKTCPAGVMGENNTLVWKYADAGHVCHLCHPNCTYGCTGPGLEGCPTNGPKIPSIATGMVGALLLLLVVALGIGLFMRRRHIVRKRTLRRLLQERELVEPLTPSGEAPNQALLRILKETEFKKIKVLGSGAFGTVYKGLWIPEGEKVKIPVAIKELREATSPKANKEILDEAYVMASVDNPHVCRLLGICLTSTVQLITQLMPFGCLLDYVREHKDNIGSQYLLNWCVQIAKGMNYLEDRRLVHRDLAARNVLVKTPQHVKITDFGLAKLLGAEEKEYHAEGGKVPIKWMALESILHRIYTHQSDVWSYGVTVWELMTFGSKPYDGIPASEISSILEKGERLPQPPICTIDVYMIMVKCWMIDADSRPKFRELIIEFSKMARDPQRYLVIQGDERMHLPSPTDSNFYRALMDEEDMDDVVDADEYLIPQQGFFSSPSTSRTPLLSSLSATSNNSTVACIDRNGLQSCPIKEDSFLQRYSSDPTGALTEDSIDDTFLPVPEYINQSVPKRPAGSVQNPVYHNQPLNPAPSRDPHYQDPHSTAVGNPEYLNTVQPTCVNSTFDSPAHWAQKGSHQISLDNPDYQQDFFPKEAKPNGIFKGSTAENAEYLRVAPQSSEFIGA

Measured: IC50

Chain of Sodium-dependent noradrenaline transporter (P23975 whole entry): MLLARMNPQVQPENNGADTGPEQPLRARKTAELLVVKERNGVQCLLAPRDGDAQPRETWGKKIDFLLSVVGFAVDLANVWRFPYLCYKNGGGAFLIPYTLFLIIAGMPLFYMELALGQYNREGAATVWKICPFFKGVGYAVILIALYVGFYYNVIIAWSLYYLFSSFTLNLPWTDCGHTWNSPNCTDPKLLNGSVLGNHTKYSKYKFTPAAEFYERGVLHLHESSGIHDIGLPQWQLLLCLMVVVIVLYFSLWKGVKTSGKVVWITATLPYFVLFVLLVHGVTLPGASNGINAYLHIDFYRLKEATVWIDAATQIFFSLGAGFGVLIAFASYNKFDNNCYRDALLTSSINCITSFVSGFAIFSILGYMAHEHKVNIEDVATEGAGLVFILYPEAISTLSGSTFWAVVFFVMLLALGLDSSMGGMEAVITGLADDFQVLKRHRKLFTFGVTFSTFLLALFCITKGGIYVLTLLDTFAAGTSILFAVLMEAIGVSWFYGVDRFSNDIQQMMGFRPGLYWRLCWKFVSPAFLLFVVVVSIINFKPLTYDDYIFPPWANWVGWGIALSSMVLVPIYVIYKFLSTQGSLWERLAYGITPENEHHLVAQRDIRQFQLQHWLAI

CO/N=C(\C(=O)N[C@@H]1C(=O)N2C(C(=O)O)=C(COC(C)=O)CS[C@H]12)c1csc(N)n1 [CEFOTAXIME]
Not Active: all assays above

Nc1cc(-c2ccncc2)c[nH]c1=O [INAMRINONE]
Not Active: all assays above
